Our source for the inhibition and Ki values is ChEMBL document CHEMBL1128481, “Synthesis, structure elucidation, and biochemical evaluation of 7 alpha- and 7 beta-arylaliphatic-substituted androst-4-ene-3,17-diones as inhibitors of aromatase” (J Med Chem, 1995).

Test [1] concerns the target T1, Aromatase (Homo sapiens, UniProt P11511).
T1 sequence (P11511 whole entry): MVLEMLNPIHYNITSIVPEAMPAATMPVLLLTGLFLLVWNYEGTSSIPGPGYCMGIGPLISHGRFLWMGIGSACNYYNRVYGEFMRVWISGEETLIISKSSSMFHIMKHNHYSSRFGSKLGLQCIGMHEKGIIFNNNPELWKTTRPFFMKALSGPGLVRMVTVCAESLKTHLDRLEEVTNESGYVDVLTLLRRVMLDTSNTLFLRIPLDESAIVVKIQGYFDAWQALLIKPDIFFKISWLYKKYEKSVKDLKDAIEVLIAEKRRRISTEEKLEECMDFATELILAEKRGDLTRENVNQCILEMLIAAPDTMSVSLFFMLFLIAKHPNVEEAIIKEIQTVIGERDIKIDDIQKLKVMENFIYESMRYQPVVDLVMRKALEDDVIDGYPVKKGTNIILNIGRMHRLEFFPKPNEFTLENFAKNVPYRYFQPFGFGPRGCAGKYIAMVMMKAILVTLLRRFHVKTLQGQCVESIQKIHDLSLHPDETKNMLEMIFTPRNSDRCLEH
The test is described as follows: Inhibition of human placental Cytochrome P450 19A1 at 100 nM.

For test [2], the target named is T1, Aromatase.
Description: Inhibition of human placental Cytochrome P450 19A1 at 250 nM
For test [3], the target named is T1, Aromatase. The source holds these as a separate data set.
Test [4] has as its target T1, Aromatase. The source holds these as a separate data set.
Description: Apparent binding affinity for human placental Cytochrome P450 19A1

Turning to `C[C@]12CCC(=O)C=C1C[C@@H](Sc1ccc(N)cc1)[C@@H]1[C@@H]2CC[C@]2(C)C(=O)CC[C@@H]12`, 0.1 µM produced 70.6% inhibition on Aromatase [1]. At 0.25 µM the inhibition at Aromatase [2] was 83.9%.
As for `C[C@]12CCC(=O)C=C1C[C@H](CCc1ccccc1)[C@@H]1[C@@H]2CC[C@]2(C)C(=O)CC[C@@H]12`, the inhibition – broadly, the drop in the measured response relative to a control, in per cent – at 0.25 µM against Aromatase [2] turned out to be 67.8%. Also, at Aromatase [3], the inhibition at 0.1 µM came to 55.7%. In addition, the affinity on Aromatase [4], expressed as Ki, was 40.2 nM.
Take `C[C@]12CCC(=O)C=C1C[C@H](Cc1ccccc1)[C@@H]1[C@@H]2CC[C@]2(C)C(=O)CC[C@@H]12`: testing at 0.25 µM on Aromatase [2] gave an inhibition of 68.9%. Further, on Aromatase [3], the inhibition at 0.1 µM worked out at 46.7%. For the same molecule, the Ki – broadly, the dissociation constant of the complex between target and ligand, obtained from inhibition or displacement – at Aromatase [4] amounted to 44.5 nM.
`C[C@]12CC[C@H]3[C@@H]([C@H](Cc4ccccc4)CC4=CC(=O)CC[C@@]43C)[C@@H]1CC[C@@H]2O` registered an inhibition at 0.25 µM at Aromatase [2] of 72.5%. Besides, on Aromatase [3], 0.1 µM produced 59.4% inhibition. The same molecule displayed a Ki at Aromatase [4] of 39.5 nM.
The molecule `C[C@]12CC[C@H]3[C@@H]([C@H](CCc4ccccc4)CC4=CC(=O)CC[C@@]43C)[C@@H]1CC[C@@H]2O` returned an inhibition at 0.25 µM against Aromatase [2] of 56.7%. The molecule also displayed an inhibition at 0.1 µM against Aromatase [3] of 45.8%. Moreover, the Ki at Aromatase [4] turned out to be 36 nM.
In the case of `CC12CCC3C(C1CCC2=O)[C@H](Cc1ccccc1)CC1=CC(=O)CCC13C` (stereo not given in full), at 0.25 µM the inhibition on Aromatase [2] was 81.5%. This molecule also yielded an inhibition at 0.1 µM against Aromatase [3] of 64.3%. Besides, the Ki at Aromatase [4] turned out to be 18.9 nM.
For `CC12CCC3C(C1CCC2=O)[C@H](CCc1ccccc1)CC1=CC(=O)CCC13C` (stereo not given in full), in that order: 81.6%, 66.1% and 13.1 nM.
